In brackets after ≈: the same amount, converted by molar mass. Entries after “also recorded” stand apart in the source; their conditions may differ. Where two headings read alike, the source gives them in different places. Where a SMILES comes first, the peptide text is derived from it. Bridges are numbered along the chain shown (N, C = ends). Roman numbers before positions name the chains, in order.
Experiments:
[1] = temperature or pH; cited from earlier work
fungi = conditions: cited from earlier work
[2] = cited from earlier work
C. albicans = assay: microbe, parasite or virus in culture; type: cell-based
Protocol: The yeast strains were cultivated and suspended in Sabouraud's Dextrose (SD) broth diluted at one sixth at a starting OD600=˜0.08 in a flat-bottomed microtitre plate. A serial dilution of peptide in the same broth was mixed with the inoculum to give a final peptide concentration of 0.4-22 μM. The antifungal activity was assessed by monitoring the OD600 in cycles of 30 minutes and an orbital shaking at 100 rpm using an Infinite M200 microplate reader (Tecan Group Ltd., Switzerland) for 24/48 h at 37° C. Cultures without peptides were used as positive controls and broth alone or with 22 μM peptide served as negative controls. The minimum concentration required for complete inhibition was assessed by both visible observations as well as by measuring the OD600 and taken as the MIC. Each experiment was repeated in triplicates.

[3] = Calcein release from fungal model membrane SUVs; conditions: peptide:lipid ratio 1:30 and 1:15
Protocol: For the preparation of PC/PE/PI or PS/Erg SUV, the lipids were dissolved in chloroform/methanol (2:1, v/v) in a glass tube. Ergosterol was dissolved in same solvent and added to lipid mixture to make final ergosterol content of 15 wt %. The Lipid-ergosterol mixture was dried using nitrogen gas to form lipid layer. The film was hydrated in a buffer containing 20 mM PBS (pH 7), vortexed and sonicated. Each cycle of sonication (5 sec, 40° C.) is followed by freezing in liquid nitrogen and thawing on a water bath kept at 37° C. The procedure was repeated 5-6 times until an optically clear dispersion appeared. The SUV was divided into two parts. To the first part 50 mM calcein was added and incubated for 1 h. The excess calcein was removed by injecting 100 μL of the calcein-loaded SUV's into a Ultrahydrogel™ 250 (7.8 mm×300 mm) column equilibrated with 20 mM PBS (pH 7.0) and eluted isochratically at a flow rate of 1 ml/min for 1.5 column volumes. The calcein-loaded liposomes were mixed with calcein-free liposome (1:1) to adjust final liposome concentration. Peptide concentration was added to obtain 1:30 or 1:15 peptide:liposome ratio. Changes in the fluorescence signal after addition of peptide or Triton X-100 was measured on a PTI spectrofluorometer, using an excitation wavelength of 480 nm and emission wavelength of 512 nm. The Percentage calcein released at each time point was calculated using the equation: […]
Similar protocol was followed for the preparation of PC/Cholesterol SUVs.

[4] = test system: C. albicans (ATCC 10231 and DF2672R); type: cell-based
Protocol: The time-kill kinetics was measured for two strains of C. albicans (ATCC 10231 and DF2672R). The cultures were grown overnight in SD broth and the cell concentration was adjusted to 10^5-10^6 CFU/ml with phosphate buffer. The peptide or antifungals were added to the individual cultures. […] The test solution was incubated at 37° C. with constant shaking. 100 μL of the suspension is withdrawn at predetermined time points, serially diluted (10^2 or 10^3 fold) and poured into the SDA plate. The plate was incubated for 48 h at 37° C. for colony counting. The data were expressed in terms of % cell viability relative to the positive control.

rabbit red blood cells = type: cell-based
Protocol: Haemolytic activity of peptides and antifungal drugs were determined against rabbit red blood cells (Oren et al., 1997). Briefly, serial dilution of peptides/antifungals in PBS was mixed with rRBC (final concentration 4% v/v), incubated at 37° C. for 1 h and centrifuged at 3000 rpm for 10 minutes. The release of hemoglobin in the supernatant was monitored by measuring the hemoglobin absorbance at 576 nm. The readings from cell suspension in PBS (without any additives) or 1% Triton-X100 were used as 0% or 100% haemolysis.

IOBA-NHC cells = type: cell-based, human; conditions: 24 h incubation; read-out: EC50 (concentration that reduces the viable cells by 50%)
Protocol: IOBA-NHC cells were cultured under standard conditions (humidified atmosphere of 5% CO2 at 37° C.) in DMEM/F12 supplemented with 1 μg/ml bovine pancreas insulin, 2 ng/ml mouse epidermal growth factor, 0.1 μg/ml cholera toxin, […] hydrocortisone, 10% fetal bovine serum (FBS), 50 UI/ml penicillin, and 50 UI/ml streptomycin. Cells from passages 50-80 were used in all experiments. Every day, normal culture development was observed by phase-contrast microscopy. Cells were removed by gentle trypsin incubation at confluence and counted. They were seeded into 96 well culture plates (Corning, Schiphol-Rijk, The Netherlands) for microtitration analysis of flow cytotoxicity assay (˜10,000 cells/well). Cultures were kept at 37° C. for 24 h. Subconfluent cells (culture surface covering nearly 70%) were then exposed to various peptide concentrations (0.22-225 μM). Cytotoxicity was measured periodically using MultiTox-Fluor Multiplex assay kit (Promega, Wis., USA) by measuring the AFC fluorescence (λex=485 and λem=520 nm).

Row | SMILES | Solubility [1] | Activity (fungi) | further results
1 | C[C@@H]1[C@H](O)[C@@H](C)/C=C/C=C/CC/C=C/C=C/C=C/C=C/C(O[C@H]2O[C@H](C)[C@@H](O)[C@H](N)[C@@H]2O)CC2O[C@](O)(CC(O)C(O)CCC(O)CC(O)CC(O)CC(=O)O[C@H]1C)CC(O)C2C(=O)O (some centres unmarked) [Nystatin] | 360 (24° C.) mg/L | Broad spectrum | logP [2]: 0.5
2 | OC(Cn1cncn1)(Cn1cncn1)c1ccc(F)cc1F [Fluconazole] | 1 mg/L (≈ 0.00327 mM) | Broad spectrum. Less effective against | 
3 | CC(C)[C@H](N)C(=O)N[C@@H](CCCNC(=N)N)C(=O)NCC(=O)N[C@@H](CCCNC(=N)N)C(=O)N[C@H](C(=O)N[C@@H](CCCNC(=N)N)C(=O)N[C@@H](CCCCN)C(=O)N[C@@H](CCCNC(=N)N)C(=O)NCCCC[C@H](NC(=O)[C@H](CCCNC(=N)N)NC(=O)[C@H](CCCCN)NC(=O)[C@H](CCCNC(=N)N)NC(=O)[C@@H](NC(=O)[C@H](CCCNC(=N)N)NC(=O)CNC(=O)[C@H](CCCNC(=N)N)NC(=O)[C@@H](N)C(C)C)C(C)C)C(=O)NCCCC[C@H](NC(=O)[C@H](CCCCNC(=O)[C@H](CCCNC(=N)N)NC(=O)[C@H](CCCCN)NC(=O)[C@H](CCCNC(=N)N)NC(=O)[C@@H](NC(=O)[C@H](CCCNC(=N)N)NC(=O)CNC(=O)[C@H](CCCNC(=N)N)NC(=O)[C@@H](N)C(C)C)C(C)C)NC(=O)[C@H](CCCNC(=N)N)NC(=O)[C@H](CCCCN)NC(=O)[C@H](CCCNC(=N)N)NC(=O)[C@@H](NC(=O)[C@H](CCCNC(=N)N)NC(=O)CNC(=O)[C@H](CCCNC(=N)N)NC(=O)[C@@H](N)C(C)C)C(C)C)C(=O)N[C@@H](CCCCN)C(=O)O)C(C)C [Sc_B4010] (I: H-VRGRVRKRKKK-OH / II: H-VRGRVRKRK / III: H-VRGRVRKR / IV: H-VRGRVRKR; amide I:9-IV:C, I:10-II:C, II:9-III:C; N-terminus and C-terminus assumed) |  |  | increase in MIC on scrambling the sequence of B4010 (C. albicans): 2-4 fold; calcein release [3]: decreased calcein release; calcein release ([3]; listed as scrambled peptide): about 41%
4 | Clc1ccc(COC(Cn2ccnc2)c2ccc(Cl)cc2Cl)c(Cl)c1 (centres unmarked) [Miconazole] |  | Broad spectrum | 
5 | CC(=O)N1CCN(c2ccc(OCC3COC(Cn4ccnc4)(c4ccc(Cl)cc4Cl)O3)cc2)CC1 (centres unmarked) [Ketaconazole] | 0.09 (25° C.) mg/L | Broad spectrum | 
6 | Nc1nc(=O)[nH]cc1F [Peptide 5-FC, 5-FC] | 1.05e+06 mg/L (≈ 8130 mM) | Not active against filamentous fungii | logP [2]: −1.1
7 | C[C@@H]1C/C=C/C=C/C=C/C=C/[C@H](O[C@@H]2O[C@H](C)[C@@H](O)[C@H](N)[C@@H]2O)C[C@@H]2O[C@](O)(C[C@@H](O)C[C@H]3O[C@@H]3/C=C/C(=O)O1)C[C@H](O)[C@H]2C(=O)O [Natamycin, reference compound] |  | Broad spectrum | time required to achieve similar endpoints (4 log reduction) ([4]; ATCC strain, 16×MIC): 24 h; fungicidal action ([4]; C. albicans DF2672R, 2×MIC, 24 h exposure): no fungicidal action; HC50 (rabbit red blood cells; rabbit, 1 h): 139.6 ± 0.18 µM; MIC (C. albicans; Candida albicans, C. albicans DF2672R): 15 µM (≈ 9.99 µg/mL)
8 | CCC(C)n1ncn(-c2ccc(N3CCN(c4ccc(OCC5COC(Cn6cncn6)(c6ccc(Cl)cc6Cl)O5)cc4)CC3)cc2)c1=O (centres unmarked) [Itraconazole] | 0.00047 mg/L (≈ 6.66e-07 mM) |  | 
9 | CC(C)[C@H](NC(=O)[C@H](CCCCN)NC(=O)[C@H](CCCNC(=N)N)NC(=O)CNC(=O)[C@@H](N)CCCNC(=N)N)C(=O)N[C@H](C(=O)N[C@@H](CCCNC(=N)N)C(=O)N[C@@H](CCCNC(=N)N)C(=O)NCCCC[C@H](NC(=O)[C@H](CCCNC(=N)N)NC(=O)[C@H](CCCNC(=N)N)NC(=O)[C@@H](NC(=O)[C@@H](NC(=O)[C@H](CCCCN)NC(=O)[C@H](CCCNC(=N)N)NC(=O)CNC(=O)[C@@H](N)CCCNC(=N)N)C(C)C)C(C)C)C(=O)N[C@@H](CCCCN)C(=O)O)C(C)C [Peptide B2088, reference compound] (I: H-RGRKVVRRKK-OH / II: H-RGRKVVRR; amide I:9-II:C; N-terminus and C-terminus assumed) |  |  | decrease in MIC compared to the monomer (C. albicans): ~14 ×; calcein release [3]: decreased calcein release
10 | CN(C/C=C/C#CC(C)(C)C)Cc1cccc2ccccc12 [Terbinafine] | 0.00074 mg/L (≈ 2.54e-06 mM) | Broad spectrum | logP [2]: 5.9
11 | CC[C@H](C)C[C@H](C)CCCCCCCCC(=O)N[C@H]1C[C@@H](O)[C@@H](NCCN)NC(=O)[C@@H]2[C@@H](O)CCN2C(=O)[C@H]([C@H](O)CCN)NC(=O)[C@H]([C@H](O)[C@@H](O)c2ccc(O)cc2)NC(=O)[C@@H]2C[C@@H](O)CN2C(=O)[C@H]([C@@H](C)O)NC1=O [Caspofungin] | 370 mg/L (≈ 0.338 mM) | Effective against Candida spp | 
12 | C[C@@H]1[C@H](O)[C@@H](C)/C=C/C=C/C=C/C=C/C=C/C=C/C=C/[C@H](O[C@@H]2O[C@H](C)[C@@H](O)[C@H](N)[C@@H]2O)C[C@@H]2O[C@](O)(C[C@@H](O)C[C@@H](O)[C@H](O)CC[C@@H](O)C[C@@H](O)CC(=O)O[C@H]1C)C[C@H](O)[C@H]2C(=O)O [Amphotericin B, reference compound] |  | Broad spectrum; also recorded: Excellent agains Aspergilus & Candida | time to maximal effect ([4]; C. albicans DF2672R, 16×MIC): less than 8 h; HC50 (rabbit red blood cells): 59.4 ± 7.8 µM; MIC for two C. albicans clinical isolates (C. albicans; two C. albicans clinical isolates): 1.4 µM; EC50 (IOBA-NHC cells): 134 ± 16 µM
